How the values were obtained:
[1] = system: p53 mutant embryos; assay: Live acridine orange (AO) assay of IR-induced cell death in inhibitor-treated p53 mutant embryos; type: in vivo, zebrafish; conditions: 12.5 Gy at 18 hpf; Gö6976 1 μM, KU55933 10 μM, Chk2 Inhibitor II 10 μM; 6 hr
Description: (§1) Chk1 inhibitors hold considerable promise in cancer therapy, as they are expected to synergize with genotoxic agents to kill tumor cells lacking functional p53, without affecting normal cells (Kawabe, 2004; Zhou and Bartek, 2004). […] Gö6976 has not been tested in vivo in a vertebrate model system. We therefore evaluated it as well as specific Chk2 and ATM inhibitors in the zebrafish system. Drug toxicity was monitored by scoring the AO reactivity of inhibitor-treated, but non-irradiated, p53^+/+ embryos (left column in FIG. 8A). Unless otherwise indicated, the inhibitors were applied at 18 hpf (that is, immediately before IR) for a total of 6 hours.
Live zebrafish embryos were dechorionated in pronase (2.0 mg/mL in egg water) for 3 to 5 min and rinsed five times in egg water at 18 hpf. Embryos were then γ-irradiated (12.5 Gy) using a ^137Cs-irradiator (Gammacell 1000) at 18 hr post-fertilization (hpf). At 24 hpf, embryos were incubated in […] Acridine Orange (AO; Sigma A-6014) in egg water for 30 min at 28.5° C., followed by 3 quick rinses and three 10-min washes in egg water. 5-10 AO-treated embryos were anesthetized in Tricaine ([…]; 3-amino benzoic acid ethylester from Sigma, A-5040) and mounted laterally on a glass slide in warm 0.5% agarose in egg water by streaking a thin layer of the warm agarose across the surface of the slide, and gently pulling the embryos across the agar with a transfer pipette. Lateral images of each zebrafish were acquired on a Zeiss Axioplan2 fluorescence microscope (5× lens), using OpenLab software and a Hammamatsu C4742-95 digital camera. All images were then converted to 8-bit grayscale in NIH ImageJ using the Image>Type>8-bit command. Next, we cropped the images using the Polyonal Selection tool and the Image>Crop functions to include only the trunk of the animal from the head until the beginning of the yolk tube (MO screen; FIG. 1B) or along the entire spinal cord (epistasis analyses; FIGS. 6A & 6D). The area outside of the selected region of interest was cleared using the Edit>Clear Outside command to create a distinct boundary around the area of interest (this is important as it allows the area of interest to be precisely selected after applying the threshold). Next, we split the acquired images into features of interest and background using the Image>Adjust>Threshold function in NIH ImageJ. We then set the maximum threshold of each image to 255 (the lower slide bar in the Threshold window), and adjusted the minimum threshold to the optimized threshold (see below). The threshold was applied using the Black & White display option, with the following Lut options applied; Thresholded pixels to foreground color; Remaining pixels to background color and Black foreground, white background. […] Next, we re-selected the region of interest on the thresholded image, following the bounded image carefully, and analyzed the pixels of the image using the Analyze>Analyze Particles function. The Minimum Size was set to 1px, the Maximum Size was set to the maximum value of 999999 and the Masks option was selected under the Show pull-down menu. The following extended options were also selected: Display Results; Clear Results; Summarize, Size Distribution and Record Starts. If selected by default, the Exclude on Edges option was deselected. The Area Fraction for each image selection was taken from the Summary window, which is the percentage of pixels in the selection that were black. To ensure valid comparisons of the AO labeling results across all experiments, we quantitatively determined a baseline Area Fraction across a large set of simultaneously irradiated and processed p53^+/+ embryos. […] This analysis yielded a mean value for the total labeled surface area of ˜20% (see FIG. 1B, light gray bar). We included at least 6 p53^+/+ non-injected control embryos in all subsequent AO-labeling experiments. […]

[2] = system: p53^+/+ embryos; assay: Drug toxicity: AO reactivity and development of inhibitor-treated, non-irradiated p53+/+ embryos; type: in vivo, zebrafish; conditions: 0 Gy; Gö6976 1 μM, KU55933 10 μM, Chk2 Inhibitor II 10 μM
Description: as §1
Immediately before IR, 18-hpf embryos were dechorionated and transferred to fresh egg water containing 1% DMSO, with or without the following inhibitors at indicated final concentrations: KU55933 (10 μM; Sigma) (Hickson et al., 2004); Chk2 Inhibitor II (10 μM; Calbiochem) (Arienti et al., 2005); Gö6976 (1 μM; Calbiochem) (Kohn et al., 2003). Unless stated otherwise, embryos were exposed to the inhibitors for 6 hr, transferred to fresh egg water, rinsed five times for 5 min, and labeled with AO. For experiments with Tg(rag2:EGFP-bcl-2) larvae, larvae were incubated in the inhibitor solution at 4 dpf, irradiated at 5 dpf, rinsed at 6 dpf, incubated in fresh inhibitor for an additional 72 hr, and mounted live at 9 dpf for fluorescence microscopic analysis of EGFP expression.

[3] = system: p53^e7/e7;chk1^MO embryos; assay: Epistasis analyses in irradiated p53^e7/e7;chk1^MO embryos (live AO assay); type: in vivo; conditions: 12.5 Gy
Description: To identify such molecules, we performed in vivo epistasis analyses in zebrafish by knocking down or forcing the expression of candidate pathway contributors in p53^e7/e7;chk1^MO embryos.
Morpholino oligonucleotides (MOs) synthesized by Gene Tools™ LLC, were resuspended in sterile water at a concentration of 1 mM and delivered into zebrafish embryos at the one-cell stage by microinjection. The injection apparatus consisted of a heat-pulled, filamentous RNAse free capillary tube positioned by a micromanipulator (Narishige™ M-125), through which the MO was pressure-injected using a nitrogen air supply controlled by a microinjector (Harvard Apparatus™ PLI-100). MOs were delivered into the yolk of embryos at the one cell stage, just below the cytoplasm. For each previously unpublished MO, the working concentration was determined as the highest dose compatible with normal zebrafish development in the p53^e7/e7 background (maximal subtoxic concentration). […] 100 ng of bcl-xl mRNA in vitro transcribed from full-length zebrafish bcl-xl cDNA cloned into pCS2 were injected as described above. All embryos were grown at 28.5° C. in egg water (5 mM NaCl, 0.17 mM KCl, 0.4 mM CaCl2 and 0.16 mM MgSO4). Knockdown efficiencies for the chk1, chk2, atm, atr, p63, casp8 and casp9 MOs at their maximal subtoxic concentrations are shown in FIG. 10. The sequences of the PCR primers used for RT-PCR-based monitoring of MO efficiencies are available upon request.
Live zebrafish embryos were dechorionated in pronase (2.0 mg/mL in egg water) for 3 to 5 min and rinsed five times in egg water at 18 hpf. […] At 24 hpf, embryos were incubated in […] Acridine Orange (AO; Sigma A-6014) in egg water for 30 min at 28.5° C., followed by 3 quick rinses and three 10-min washes in egg water. 5-10 AO-treated embryos were anesthetized in Tricaine ([…]; 3-amino benzoic acid ethylester from Sigma, A-5040) and mounted laterally on a glass slide in warm 0.5% agarose in egg water by streaking a thin layer of the warm agarose across the surface of the slide, and gently pulling the embryos across the agar with a transfer pipette. Lateral images of each zebrafish were acquired on a Zeiss Axioplan2 fluorescence microscope (5× lens), using OpenLab software and a Hammamatsu C4742-95 digital camera. All images were then converted to 8-bit grayscale in NIH ImageJ using the Image>Type>8-bit command. Next, we cropped the images using the Polyonal Selection tool and the Image>Crop functions to include only the trunk of the animal from the head until the beginning of the yolk tube (MO screen; FIG. 1B) or along the entire spinal cord (epistasis analyses; FIGS. 6A & 6D). The area outside of the selected region of interest was cleared using the Edit>Clear Outside command to create a distinct boundary around the area of interest (this is important as it allows the area of interest to be precisely selected after applying the threshold). Next, we split the acquired images into features of interest and background using the Image>Adjust>Threshold function in NIH ImageJ. We then set the maximum threshold of each image to 255 (the lower slide bar in the Threshold window), and adjusted the minimum threshold to the optimized threshold (see below). The threshold was applied using the Black & White display option, with the following Lut options applied; Thresholded pixels to foreground color; Remaining pixels to background color and Black foreground, white background. […] Next, we re-selected the region of interest on the thresholded image, following the bounded image carefully, and analyzed the pixels of the image using the Analyze>Analyze Particles function. The Minimum Size was set to 1px, the Maximum Size was set to the maximum value of 999999 and the Masks option was selected under the Show pull-down menu. The following extended options were also selected: Display Results; Clear Results; Summarize, Size Distribution and Record Starts. […]

Molecule | effect on IR-induced cell death (AO labeling) of p53^e7/e7;chk1^MO embryos [3] | further results
NC(=O)c1ccc2nc(-c3ccc(Oc4ccc(Cl)cc4)cc3)[nH]c2c1 [Chk2 Inhibitor II] | – | radiosensitization of p53 mutants (IR-induced AO labeling) [1]: only modestly radiosensitized; toxicity of the dose used (AO reactivity of non-irradiated embryos) [2]: relatively toxic
O=c1cc(-c2cccc3c2Sc2ccccc2S3)oc(N2CCOCC2)c1 [KU55933] | – | radiosensitization of p53 mutants (IR-induced AO labeling) [1]: only modestly radiosensitized; toxicity of the dose used (AO reactivity of non-irradiated embryos) [2]: relatively toxic
atm MO: morpholino against zebrafish atm, splice acceptor i55/e56 (SEQ ID NO: 14) (GAAAACGGCACCACCTGGTAAAAAC; antisense; all phosphorodiamidate morpholino (PMO)) | – | reduction of the mean p53^e7/e7;chk1^MO AO response [3]: ~60%
casp2 MO1: morpholino targeting the splice donor site of intron 4 of zebrafish casp2 (SEQ ID NO: 22) (CGCTGAAACCCTGTTGTACCTGTGG; all phosphorodiamidate morpholino (PMO)) | – | AO labeling, of the mean p53^e7/e7;chk1^MO response ([3]; 7.5 hpIR): 16%; mean decrease in AO labeling compared with p53^e7/e7;chk1^MO embryos ([3]; three separate experiments): 6 fold
casp2 MO2: second casp2 morpholino, gt e3/i3 (SEQ ID NO: 23) (antisense ACCATACTAAAGTACCAACCATGAG; all phosphorodiamidate morpholino (PMO)) | significantly reduced IR-induced death | –
casp8 MO: morpholino against zebrafish casp8 splice donor site (SEQ ID NO: 25) (antisense ACAGGGTTTTAACTCACAGTAGATC; all phosphorodiamidate morpholino (PMO)) | did not differ | –
fadd MO: morpholino against zebrafish FADD, gt e3/i3 (SEQ ID NO: 30) (antisense TAACGTTACCAACCTCGCTCTTTCG; all phosphorodiamidate morpholino (PMO)) | failed to affect AO staining | –
mismatch version of casp2 MO1: 5 base-pair mismatch casp2 morpholino (SEQ ID NO: 24) (antisense CGGTGAAAGCCTCTTCTACCTCTGG; all phosphorodiamidate morpholino (PMO)) | had no effect | –
p63 MO: morpholino against zebrafish p63, gt e3/i3 (SEQ ID NO: 28) (antisense AAAGAGTGGCATACCGTCATTGAAC; all phosphorodiamidate morpholino (PMO)) | failed to compromise IR-induced cell death | –
p73 MO: morpholino against zebrafish TAp73 atg/5'UTR (SEQ ID NO: 29) (antisense GGATGTTGGACAATCCACCGCAGGG; all phosphorodiamidate morpholino (PMO)) | failed to compromise IR-induced cell death | –
puma MO: morpholino against zebrafish puma, gt e2/i2 (SEQ ID NO: 27) (antisense AACCAAGCATGACTCTTACCCTCTG; all phosphorodiamidate morpholino (PMO)) | did not significantly affect AO labeling | –
